Experimental data taken from ChEMBL document CHEMBL6134803, “ZLDI-8 facilitates pexophagy by ROS-mediated activation of TFEB and ATM in HeLa cells” (Bioorg Med Chem Lett, 2025).
The source made the active and inactive calls. No cut-off for these calls is given here.

Assays:
Format in all cases: functional, cell-based
[1] = tested on: HeLa; test: Induction of pexophagy in ATG5 knockout human HeLa cells assessed as decrease in LC3I protein expression at 5 uM incubated for 48 hrs by Western blot analysis
[2] = tested on: HeLa; test: Induction of pexophagy in human HeLa cells expressing HyPer-PTS1 assessed as reduction in peroxisome numbers at 5 uM incubated for 48 hrs in presence of ROS scavenger NAC by immunostaining based analysis
[3] = tested on: HeLa; test: Induction of pexophagy in human HeLa cells at 5 uM cotreated with KU55933 measured at 48 hrs by immunostaining based analysis
[4] = tested on: HeLa; test: Induction of pexophagy in ATG5 knockout human HeLa cells assessed as decrease in ABCD3 protein expression at 5 uM incubated for 48 hrs by Western blot analysis
[5] = tested on: TERT-RPE1; test: Induction of pexophagy in human TERT-RPE1 cells expressing mRFP-EGFP-SKL assessed as increase in red-only puncta at 5 uM incubated for 48 hrs by fluorescence microscopic analysis
[6] = tested on: HeLa; test: Induction of pexophagy in wild-type human HeLa cells assessed as reduction in peroxisomes at 5 uM incubated for 48 hrs by immunostaining based analysis
[7] = tested on: HeLa; test: Induction of pexophagy in human HeLa cells assessed as reduction in peroxisomes at 5 uM incubated for 48 hrs treated with Bafilomycin A1 by immunostaining based analysis
[8] = tested on: HeLa; test: Induction of pexophagy in ATG5 knockout human HeLa cells assessed as reduction in peroxisomes at 5 uM incubated for 48 hrs by immunostaining based analysis
[9] = tested on: HeLa; test: Induction of autophagy in human HeLa cells assessed as reduction in peroxisomes number golgi apparatus at 5 uM incubated for 48 hrs in presence of FTCD antibody by fluorescence microscopic analysis
[10] = tested on: HeLa; test: Induction of pexophagy in human HeLa cells expressing HyPer-PTS1 assessed as reduction in peroxisome numbers at 5 uM incubated for 48 hrs by immunostaining based analysis
[11] = tested on: HeLa; test: Induction of pexophagy in ATG5 knockout human HeLa cells assessed as […] in LC3II protein expression at 5 uM incubated for 48 hrs by Western blot analysis
[12] = tested on: HeLa; test: Induction of autophagy in human HeLa cells assessed as reduction in peroxisomes number in mitochondria at 5 uM incubated for 48 hrs in presence of TOMM20 antibody by fluorescence microscopic analysis
[13] = tested on: HeLa; test: Induction of pexophagy in human HeLa cells expressing HyPer-PTS1 assessed as increase in peroxisomal ROS levels at 5 uM incubated for 48 hrs in presence of ROS scavenger NAC by fluorescence based analysis
[14] = tested on: HeLa; test: Induction of pexophagy in human HeLa cells at 5 uM measured at 48 hrs by immunostaining based analysis
[15] = tested on: HeLa; test: Induction of pexophagy in human HeLa cells assessed as increase in ATM phosphorylation at serine 1981 residue at 5 uM cotreated with ROS scavenger NAC measured at 48 hrs by Western blot analysis
[16] = tested on: HeLa; test: Induction of pexophagy in human HeLa cells assessed as increase in ROS levels at 5 uM incubated for 48 hrs in presence of ROS scavenger NAC by DCFH-DA staining based assay
[17] = tested on: HeLa; test: Induction of pexophagy in human HeLa cells assessed as reduction in peroxisome numbers at 5 uM incubated for 48 hrs in presence of anti-ABCD3 antibody by immunostaining based analysis
[18] = tested on: HeLa; test: Induction of autophagy in human HeLa cells assessed as reduction in peroxisomes number in endoplasmic reticulum at 5 uM incubated for 48 hrs in presence of P4HB antibody by fluorescence microscopic analysis
[19] = tested on: HeLa; test: Induction of pexophagy in human HeLa cells assessed as increase in ATM phosphorylation at serine 1981 residue at 5 uM measured at 48 hrs by Western blot analysis
[20] = tested on: HeLa; test: Induction of TFEB nuclear translocation in human HeLa cells assessed as decrease in TFEB phoshorylation at 5 uM measured at 48 hrs by Western blot analysis
[21] = tested on: HeLa; test: Induction of TFEB nuclear translocation in human HeLa cells assessed as decrease in TFEB phoshorylation at 5 uM cotreated with ROS scavenger NAC measured at 48 hrs by Western blot analysis
[22] = tested on: HeLa; test: Induction of TFEB nuclear translocation in human HeLa cells expressing EGFP-TFEB at 5 uM measured at 48 hrs in presence of ROS scavenger NAC by fluorescence microscopic analysis
[23] = tested on: HeLa; test: Induction of pexophagy in wild-type human HeLa cells assessed as […] in LC3II protein expression at 5 uM incubated for 48 hrs by Western blot analysis
[24] = tested on: HeLa; test: Induction of pexophagy in wild-type human HeLa cells assessed as decrease in ABCD3 protein expression at 5 uM incubated for 48 hrs by Western blot analysis
[25] = tested on: HeLa; test: Induction of pexophagy in wild-type human HeLa cells assessed as decrease in LC3I protein expression at 5 uM incubated for 48 hrs by Western blot analysis
[26] = tested on: HeLa; test: Induction of autophagic flux in human HeLa cells at 5 uM preincubated for 36 hrs followed by addition of Bafilomycin A1 and measured after 12 hrs by Western blot analysis; settings: time 48.0 hrs

Cc1ccc(OCCn2c(C)c(C=C3C(=O)NC(=S)NC3=O)c3ccccc32)c(C)c1
Activity [1]: inactive
Activity [2]: inactive
Activity [3]: Active
Activity [4]: inactive
Activity [5]: Active
Activity [6]: Active
Activity [7]: Active
Activity [8]: inactive
Activity [9]: Active
Activity [10]: Active
Activity [11]: inactive
Activity [12]: Active
Activity [13]: Active
Activity [14]: Active
Activity [15]: inactive
Activity [16]: Active
Activity [17]: Active
Activity [18]: Active
Activity [19]: Active
Activity [20]: Active
Activity [21]: inactive
Activity [22]: Active
Activity [23]: Active
Activity [24]: Active
Activity [25]: Active
Activity [26]: Active
